# Measurements reported in publication PMC12977544, “Phenotypic high-throughput screening identifies modulators of gut microbial choline metabolism” (mBio, 2026).
# pEC50: −log10 of the molar value.
# Assays:
# E. coli MS 200-1 = assay: TMA inhibition in bacterial whole cells (LC–MS/MS of d9-TMA from d9-choline); type: cell-based, Escherichia coli MS 200-1; conditions: Escherichia coli, MS2001, 1.25 h; 1 mM d9-choline in PBS, 75 min, 37°C, anaerobic
# [1] = system: conventional C57BL/6 mice; assay: Serum TMAO in conventional mice after inhibitor treatment; type: in vivo, Mus musculus C57BL/6
# Description: In a biosafety cabinet, a 300 mg/mL stock of sterile inhibitor in filter-sterilized DMSO was prepared. After this preparation, a working solution of 3 mg/mL of the inhibitor stock in sterile 1% hydroxyethyl cellulose/1% polysorbate 80 was prepared within 4 days of gavaging the mice and stored at room temperature. A low dose of the inhibitor was also prepared, using a working solution of 0.3 mg/mL of the inhibitor stock in sterile 1% hydroxyethyl cellulose/1% polysorbate 80. The vehicle was prepared in the same way with DMSO without inhibitor. […] All mice were administered by gavage with 3 mg/kg or 30 mg/kg of the inhibitor once a day (between 6 and 8 a.m.) for three consecutive days. A fecal sample was collected before the first gavage. At sacrifice, tissues collected were blood, cecal contents, a fecal pellet, proximal colon, distal small intestine, liver, and kidney. Mice were anesthetized with isoflurane and underwent cardiac puncture for a terminal blood draw, followed by cervical dislocation. Tissues were snap-frozen in liquid nitrogen. Blood was spun down at 8,000 × g for 8 min at room temperature; the resulting serum layer was removed and snap-frozen. […] […] was used for peak quantification, and internal standards were utilized as a comparison to calculate plasma concentrations. Statistical significance was calculated using an unpaired t-test.
SMILES,pEC50 (E. coli MS 200-1),"Serum TMAO level relative to vehicle treatment ([1]; 30 mg/kg oral gavage daily for 3 days, 1% choline diet, P = 0.027)","Decrease of serum TMAO levels ([1]; 30 mg/kg, n = 6, P = 0.027)"
Cc1ccc(-c2cc(C(=O)NCCCN3CCc4ccccc4C3)c(C)[nH]2)cc1C [Compound 5],4.92,–,–
Cc1ccc(-c2cc(C(=O)NCCCCCN3CCCCCC3)c(C)[nH]2)cc1C [Compound 45],–,about 60 % of vehicle treatment,~ 40%
